Results on 23 compounds are retold here after patent US10981882B1, “Compound for inhibiting IDO, a manufacturing method and a use thereof” (Shanghai JOYU Pharmatech Ltd., priority 2017, dated 2021).

Each structure is given as a SMILES string.

The target in assay [1] is IDO protease in HEK293 cell (Homo sapiens (Human), UniProt P14902). In words: Inhibitory activity of IDO protease in HEK293 cell transfected with human IDO gene. The format is cell-based. The note with it: for inhibiting effect on IDO protease: result in words, tested by the above assay; for IC50: HEK293 cells transfected with pcDNA3.1(+)-hIDO, compounds incubated for 5 hr. As for the experimental part: 2. Determination of the Inhibitory Activity of IDO Protease in HEK293 Cell
Chain of IDO protease in HEK293 cell (P14902 whole entry): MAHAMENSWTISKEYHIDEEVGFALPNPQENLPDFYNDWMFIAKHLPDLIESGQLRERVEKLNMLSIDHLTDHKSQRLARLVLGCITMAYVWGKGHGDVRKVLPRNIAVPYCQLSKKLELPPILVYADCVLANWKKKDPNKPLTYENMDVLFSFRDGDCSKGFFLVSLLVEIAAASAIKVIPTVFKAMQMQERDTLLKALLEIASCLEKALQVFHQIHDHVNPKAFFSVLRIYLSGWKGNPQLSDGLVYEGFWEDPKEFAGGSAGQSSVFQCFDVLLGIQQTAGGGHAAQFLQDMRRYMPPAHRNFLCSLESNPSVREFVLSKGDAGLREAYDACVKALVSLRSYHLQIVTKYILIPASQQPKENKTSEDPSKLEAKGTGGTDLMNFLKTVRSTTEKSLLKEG
HEK293 cells were seeded in a 96-well microplate at a density of 2.5×10^4 cells/well and were maintained in DMEM (containing 10% fetal bovine serum, 50 U/mL penicillin and […] streptomycin) at 37° C. 24 hours later, HEK-293 cells were transfected with pcDNA3.1 (+)-hIDO vector carrying human IDO gene using Lipofectamine 2000. After 24 hr, the tested compounds were added to the cells and incubated for 5 hr. 140 μL of supernatant was transferred to a well in a new 96-well microplate. 10 μL of 30% (w/v) trichloroacetic acid was added to each sample-containing well and reaction was incubated at 65° C. for 15 min. The reaction mixture was centrifuged at 13000×g for 10 min. The supernatant was mixed with p-(dimethylamino)benzaldehydein acetic acid in the same volume. The yellow pigment derived from kynurenine was measured for absorbance (D) value at 480 nm using a microplate reader.
The inhibitory activity of compounds prepared in Example 1-19 against the IDO protease in HEK293 cell was determined with the above test.

In another assay the target is human IDO1 protease (Homo sapiens (Human), UniProt P14902). Description: Inhibitory activity against human IDO1 protease (recombinant enzyme, kynurenine absorbance at 480 nm). It is filed as biochemical. The following applies: recombinant human IDO1, L-Tryptophan substrate, 30 min at 37° C. As for the experimental part:
The inhibitory activity of extracorporal human IDO1 protease was tested through the following method. The inhibition effect of compounds of the present invention against the human IDO1 protease was determined through the method.
(1) Preparation of Human Recombinant IDO1 Protease
BL21 E. Coli were transformed with a correct sequences PET28a-hIDO1 vector. A single colony was inoculated in Luria-Bertani (LB) medium at 37° C. Bacterial cells were then collected through centrifugation. The cell pellets were sonicated, then centrifuged at 4° C. The supernatant was then collected and purified by Ni chromatography to give pure rhIDO1 protease.
(2) The Test of the Compounds
IDO1 enzymatic assay was carried out in a reaction mixture (500 μL/well) containing 50 mmol/L potassium phosphate buffer, 400 μg/mL catalase, 40 mmol/L ascorbic acid, 20 μmol/mL methylene blue, […] L-Tryptophan and the test compound. After the mixture was incubated for 3˜5 min at 37° C., recombinant human IDO1 was added to. The mixture was incubated for another 30 min at 37° C. and the reaction was stopped by adding 200 μL of 30% (w/v) trichloroacetic acid. After heating in a water bath pot at 65° C. for 15 min and centrifugation at 13800×g for 10 min. 100 μL of supernatant was transferred into a well of a 96-well microplate and mixed with the same volume of 2% (w/v) p-(dimethylamino)benzaldehyde in acetic acid. […]. When the color of the mixture became yellow, the mixture was measured for absorbance (D) value at 480 nm using microplate reader.
The inhibitory activity of compounds of the present invention against the human IDO1 protease was determined with the above test.

Chain of human IDO1 protease (P14902 whole entry): as above

Consider `N=C(Nc1ccc(F)c(Br)c1)c1nonc1NC1CCC(CCNS(N)(=O)=O)C1` (centres unmarked) [Compound 17], for which the “inhibiting effect on IDO protease” value in assay [1] is recorded as “showed the inhibiting effect”. Consider `NS(=O)(=O)NC1CCCC(CNc2nonc2C(=NO)Nc2ccc(F)c(Br)c2)C1` (centres unmarked) [Example 11, N-(3-bromo-4-fluorophenyl)-N′-hydroxy-4-(((3-(sulfamoylamino)cyclohexyl)methyl)amino)-1,2,5-oxadiazole-3-carboximidamide], for which the results for the IC50 (at human IDO1 protease; in assay [1]) were 43 nM and 18 nM, respectively. In the same order, the values of `NS(=O)(=O)NC1CCC(Nc2nonc2C(=NO)Nc2ccc(F)c(Br)c2)C1` (centres unmarked) [Example 16] are 63 nM and 42 nM. Turning to `NS(=O)(=O)N[C@H]1CC[C@@H](Nc2nonc2C(=NO)Nc2ccc(F)c(Br)c2)CC1` [Example 19, cis-N-(3-bromo-4-fluorophenyl)-N′-hydroxy-4-(((1s,4s)-4-(sulfamoylamino)cyclohexyl)amino)-1,2,5-oxadiazole-3-carboximidamide], the IC50 is 12 nM on human IDO1 protease and 5 nM in assay [1].

On to `NS(=O)(=O)NC1CCC(CNc2nonc2C(=NO)Nc2ccc(F)c(Br)c2)C1` (centres unmarked) [Compound 19], for which the “inhibiting effect on IDO protease” value in assay [1] was “showed the inhibiting effect”. Turning to `NS(=O)(=O)NC1CCC(CCNc2nonc2C(=NO)Nc2ccc(F)c(Br)c2)CC1` (centres unmarked) [Example 4, N-(3-bromo-4-fluorophenyl)-N′-hydroxy-4-((2-(4-(sulfamoylamino)cyclohexyl)ethyl)amino)-1,2,5-oxadiazole-3-carboximidamide], the IC50 came to 22 nM on human IDO1 protease and 36 nM in assay [1]. In the case of `NS(=O)(=O)NCCC1CCCC(Nc2nonc2C(=NO)Nc2ccc(F)c(Br)c2)C1` (centres unmarked) [Example 10, N-(3-bromo-4-fluorophenyl)-N′-hydroxy-4-((3-(2-(sulfamoylamino)ethyl)cyclohexyl)amino)-1,2,5-oxadiazole-3-carboximidamide], the IC50 at human IDO1 protease stood at 59 nM; in assay [1], 52 nM. In the same order, the values of `NS(=O)(=O)NCCC1CCC(CNc2nonc2C(=NO)Nc2ccc(F)c(Br)c2)CC1` (centres unmarked) [Example 7, N-(3-bromo-4-fluorophenyl)-N′-hydroxy-4-(((4-(2-(sulfamoylamino)ethyl)cyclohexyl)methyl)amino)-1,2,5-oxadiazole-3-carboximidamide] are 74 nM and 21 nM. In the same order, the values of `NS(=O)(=O)NC[C@H]1CC[C@H](Nc2nonc2C(=NO)Nc2ccc(F)c(Br)c2)CC1` [Example 1, trans-N-(3-bromo-4-fluorophenyl)-N′-hydroxy-4-((4-((sulfamoylamino)methyl)cyclohexyl)amino)-1,2,5-oxadiazole-3-carboximidamide] are 16 nM and 8 nM. In the case of `N=C(Nc1ccc(F)c(Br)c1)c1nonc1NCC1CCCC(CCNS(N)(=O)=O)C1` (centres unmarked) [Compound 15], the “inhibiting effect on IDO protease” value in assay [1] is “showed the inhibiting effect”. Same read-out and setting: to `NS(=O)(=O)NCCC1CCCC(CCNc2nonc2C(=NO)Nc2ccc(F)c(Br)c2)C1` (centres unmarked) [Compound 16] belongs “showed the inhibiting effect”. Turning to `NS(=O)(=O)NCC1CCC(CNc2nonc2C(=NO)Nc2ccc(F)c(Br)c2)CC1` (centres unmarked) [Example 5, N-(3-bromo-4-fluorophenyl)-N′-hydroxy-4-(((4-((sulfamoylamino)methyl)cyclohexyl)methyl)amino)-1,2,5-oxadiazole-3-carboximidamide], the IC50 on human IDO1 protease was determined as 45 nM; in assay [1] it was 14 nM. On to `NS(=O)(=O)NCC1CCC(Nc2nonc2C(=NO)Nc2ccc(F)c(Br)c2)C1` (centres unmarked) [Example 14, N-(3-bromo-4-fluorophenyl)-N′-hydroxy-4-((3-((sulfamoylamino)methyl)cyclopentyl)amino)-1,2,5-oxadiazole-3-carboximidamide], for which the IC50 on human IDO1 protease came to 108 nM; in assay [1] it was 48 nM. `NS(=O)(=O)NCC1CCC(CCNc2nonc2C(=NO)Nc2ccc(F)c(Br)c2)CC1` (centres unmarked) [Example 6, N-(3-bromo-4-fluorophenyl)-N′-hydroxy-4-((2-(4-((sulfamoylamino)methyl)cyclohexyl)ethyl)amino)-1,2,5-oxadiazole-3-carboximidamide]: the IC50 at human IDO1 protease turned out to be 48 nM; in assay [1], 39 nM. Take `NS(=O)(=O)NC1CCCC(CCNc2nonc2C(=NO)Nc2ccc(F)c(Br)c2)C1` (centres unmarked) [Example 12, N-(3-bromo-4-fluorophenyl)-N′-hydroxy-4-((2-(3-(sulfamoylamino)cyclohexyl)ethyl)amino)-1,2,5-oxadiazole-3-carboximidamide]: the figures for the half-maximal inhibitory concentration (IC50) (on human IDO1 protease; in assay [1]) were 60 nM and 23 nM, respectively. In the case of `NS(=O)(=O)NC1CCN(Nc2nonc2C(=NO)Nc2ccc(F)c(Br)c2)CC1` [Example 15, N-(3-bromo-4-fluorophenyl)-N′-hydroxy-4-((4-(sulfamoylamino)piperidin-1-yl)amino)-1,2,5-oxadiazole-3-carboximidamide], the results for the IC50 (on human IDO1 protease; in assay [1]) were 83 nM and 37 nM, respectively. Consider `N=C(Nc1ccc(F)c(Br)c1)c1nonc1NCCC1CCCC(CNS(N)(=O)=O)C1` (centres unmarked) [Compound 14], for which the “inhibiting effect on IDO protease” value in assay [1] is on record as “showed the inhibiting effect”.

`NS(=O)(=O)N[C@H]1CC[C@H](Nc2nonc2C(=NO)Nc2ccc(F)c(Br)c2)CC1` [Example 18, trans-N-(3-bromo-4-fluorophenyl)-N′-hydroxy-4-(((1r,4r)-4-(sulfamoylamino)yclohexyl)amino)-1,2,5-oxadiazole-3-carboximidamide]: the IC50 at human IDO1 protease was found to be 6 nM; in assay [1] it was 3 nM. With `NS(=O)(=O)NCC1CCCC(Nc2nonc2C(=NO)Nc2ccc(F)c(Br)c2)C1` (centres unmarked) [Example 9, N-(3-bromo-4-fluorophenyl)-N′-hydroxy-4-((3-((sulfamoylamino)methyl)cyclohexyl)amino)-1,2,5-oxadiazole-3-carboximidamide], the IC50 at human IDO1 protease came to 64 nM; in assay [1], 27 nM. On the same counts, the results for `NS(=O)(=O)N[C@H]1CC[C@H](CNc2nonc2C(=NO)Nc2ccc(F)c(Br)c2)CC1` [Example 3, Trans-N-(3-bromo-4-fluorophenyl)-N′-hydroxy-4-(((4-(sulfamoylamino)cyclohexyl)methyl)amino)-1,2,5-oxadiazole-3-carboximidamide] are 38 nM and 13 nM. In the same order, the values of `NS(=O)(=O)NCCC1CCC(CCNc2nonc2C(=NO)Nc2ccc(F)c(Br)c2)CC1` (centres unmarked) [Example 8, N-(3-bromo-4-fluorophenyl)-N′-hydroxy-4-((2-(4-(2-(sulfamoylamino)ethyl)cyclohexyl)ethyl)amino)-1,2,5-oxadiazole-3-carboximidamide] are 51 nM and 45 nM. In the same order, the values of `NS(=O)(=O)NCC[C@H]1CC[C@H](Nc2nonc2C(=NO)Nc2ccc(F)c(Br)c2)CC1` [Example 2, trans-N-(3-bromo-4-fluorophenyl)-N′-hydroxy-4-((4-(2-(sulfamoylamino)ethyl)cyclohexyl)amino)-1,2,5-oxadiazole-3-carboximidamide] are 46 nM and 36 nM.

Regarding `NS(=O)(=O)NC1CCC(Nc2nonc2/C(=N/O)Nc2ccc(F)c(Br)c2)CC1` (centres unmarked) [Example 17, N-(3-bromo-4-fluorophenyl)-N′-hydroxy-4-((4-(sulfamoylamino)cyclohexyl)amino)-1,2,5-oxadiazole-3-carboximidamide], the IC50 was 15 nM at human IDO1 protease and 10 nM in assay [1].

As a reminder, the IC50 is the concentration that gives 50% inhibition.
